Data taken from patent publication US4322555A, “Nonaprenylamine derivatives” (priority 1980, dated 1982).
Structures can show the parent of a compound that is named as a salt. Where two headings read alike, the source gives them in different places.

How the values were obtained:
[1] = Toxicity (acute toxicity, 50% lethal dose); details: mouse, in vivo, ddY male mice
[2] = system: serum interferon; parameters: species or system mice; details: mouse, in vivo
[3] = system: vaccinia virus (DIE strain); assay type: in vivo, vaccinia virus (DIE strain) in ICR female mice; details: 50 mg/kg i.p. on the day just before inoculation; ICR female mice; lesions counted 8th day
[4] = ip, read-out: 50% Lethal dose, intraperitoneally administered
[5] = iv, read-out: 50% Lethal dose, intravenously administered

For `CC(C)=CCCC(C)=CCCC(C)=CCCC(C)=CCCC(C)=CCCC(C)=CCCC(C)=CCCC(C)=CCCC(C)=CCNCCc1ccccc1` [N-phenethylsolanesylamine hydrochloride], the LD50 [1, 4] was over 500 mg/kg, the LD50 [1, 5] was 250 mg/kg and the “Serum interferon (Plaque inhibition)” value [2] was 19.1%. The “Prevention from vaccinia infection (Inhibition of tail lesion)” value (“Prevention … (Inhibition of tail lesion)” for short) [3] was 30.8%.
In the case of `CC(C)=CCCC(C)=CCCC(C)=CCCC(C)=CCCC(C)=CCCC(C)=CCCC(C)=CCCC(C)=CCCC(C)=CCN(C)Cc1ccccc1` [N-methyl-N-benzylsolanesylamine hydrochloride], the LD50 [1, 4] is reported as over 500 mg/kg, the LD50 [1, 5] is reported as 550 mg/kg and the “Serum interferon (Plaque inhibition)” value [2] is reported as 44.5%. For the same compound, the “Prevention … (Inhibition of tail lesion)” value [3] was 17.5%.
For `CC(C)=CCCC(C)=CCCC(C)=CCCC(C)=CCCC(C)=CCCC(C)=CCCC(C)=CCCC(C)=CCCC(C)=CCN(C)c1ccccc1` [N-methyl-N-phenylsolanesylamine], the LD50 [1, 4] was over 500 mg/kg, the LD50 [1, 5] was over 500 mg/kg and the “Serum interferon (Plaque inhibition)” value [2] was 24.1%. For the same compound, the “Prevention … (Inhibition of tail lesion)” value [3] was 26.8%.
For `CC(C)=CCCC(C)=CCCC(C)=CCCC(C)=CCCC(C)=CCCC(C)=CCCC(C)=CCCC(C)=CCCC(C)=CCNCc1ccccc1` [N-benzylsolanesylamine hydrochloride], the LD50 [1, 5] was 152 mg/kg, the “Serum interferon (Plaque inhibition)” value [2] was 31.5% and the “Prevention … (Inhibition of tail lesion)” value [3] was 74.7%.
